In publication PMC9697198, “Carbonic Anhydrase Inhibition Activities of Schiff’s Bases Based on Quinazoline-Linked Benzenesulfonamide” (Molecules, 2022):
“And” between values parts separate entries of the source, which are not always exact repeats. Equal entries are not always repeated.

Key:
hCA IX = hCA IX (Homo sapiens, UniProt Q16790); assay: hCA IX inhibition, stopped-flow assay; format: biochemical; conditions: for Selectivity Analysis hCA I/IX / Selectivity Analysis hCA II/IX: selectivity index (SI); for Selectivity Analysis hCA I/IX: ratio of Ki hCA I to Ki hCA IX; for Selectivity Analysis hCA II/IX: ratio of Ki hCA II to Ki hCA IX; for Ki: stopped-flow technique, mean from three different assays, errors ±5–10%
hCA II = hCA II (Homo sapiens, UniProt P00918); assay: hCA II inhibition, stopped-flow assay; format: biochemical; conditions: stopped-flow technique; mean from three different assays, errors ±5–10%
hCA XII = hCA XII (Homo sapiens, UniProt O43570); assay: hCA XII inhibition, stopped-flow assay; format: biochemical; conditions: for Selectivity Analysis hCA I/XII / Selectivity Analysis hCA II/XII: selectivity index (SI); for Selectivity Analysis hCA I/XII: ratio of Ki hCA I to Ki hCA XII; for Selectivity Analysis hCA II/XII: ratio of Ki hCA II to Ki hCA XII; for Ki: stopped-flow technique, mean from three different assays, errors ±5–10%
hCA I = hCA I (Homo sapiens, UniProt P00915); assay: hCA I inhibition, stopped-flow assay; format: biochemical; conditions: stopped-flow technique; mean from three different assays, errors ±5–10%
hCA I, sequence (P00915 whole entry): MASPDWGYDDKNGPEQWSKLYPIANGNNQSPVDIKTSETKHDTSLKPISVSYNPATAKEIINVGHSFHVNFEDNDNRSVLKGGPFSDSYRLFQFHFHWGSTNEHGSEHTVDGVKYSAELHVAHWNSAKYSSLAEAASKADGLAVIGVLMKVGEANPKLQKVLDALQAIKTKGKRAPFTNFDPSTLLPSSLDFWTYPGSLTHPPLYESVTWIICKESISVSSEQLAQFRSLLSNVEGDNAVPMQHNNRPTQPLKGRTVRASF

hCA XII, sequence (O43570 25-354): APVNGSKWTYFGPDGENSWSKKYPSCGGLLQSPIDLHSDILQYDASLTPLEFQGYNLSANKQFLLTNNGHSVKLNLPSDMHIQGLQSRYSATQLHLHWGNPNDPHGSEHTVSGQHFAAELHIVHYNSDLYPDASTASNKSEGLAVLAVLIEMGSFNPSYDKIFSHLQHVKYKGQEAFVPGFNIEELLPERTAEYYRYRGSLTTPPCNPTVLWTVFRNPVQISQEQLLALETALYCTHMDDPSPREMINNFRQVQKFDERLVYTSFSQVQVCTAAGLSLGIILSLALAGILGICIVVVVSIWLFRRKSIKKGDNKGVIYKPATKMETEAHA

Selectivity Analysis hCA I/IX (hCA IX)	Selectivity Analysis hCA II/IX (hCA IX)	Ki (hCA IX)	melting point [°C]	Ki (hCA II) [nM]	Selectivity Analysis hCA I/XII (hCA XII)	Selectivity Analysis hCA II/XII (hCA XII)	Ki (hCA XII) [nM]	Ki (hCA I) [nM]	Structure (SMILES)
75.77	10.22	5.8 nM	308 to 309	59.3	27.64	3.72	15.9	439	CC(=NNC(=O)CSc1nc2ccccc2c(=O)n1CCc1ccc(S(N)(=O)=O)cc1)c1ccc(N)cc1 [Compound 19, 4-(2-(2-((2-(2-(1-(4-Aminophenyl)ethylidene)hydrazineyl)-2-oxoethyl)thio)-4-oxoquinazolin-3(4H)-yl)ethyl)benzenesulfonamide]
11.51	4.50	75.3 nM	297 to 298	339	18.49	7.23	46.9	867	CC(=NNC(=O)CSc1nc2ccccc2c(=O)n1CCc1ccc(S(N)(=O)=O)cc1)c1cccc(Cl)c1 [Compound 22, 4-(2-(2-((2-(2-(1-(3-Chlorophenyl)ethylidene)hydrazineyl)-2-oxoethyl)thio)-4-oxoquinazolin-3(4H)-yl)ethyl)benzenesulfonamide]
11.41	2.34	29.6 nM	239 to 240	69.4	5.31	1.09	63.5	338	Cc1ccccc1C=NNC(=O)CSc1nc2ccccc2c(=O)n1CCc1ccc(S(N)(=O)=O)cc1 [Compound 12, 4-(2-(2-((2-(2-(2-Methylbenzylidene)hydrazineyl)-2-oxoethyl)thio)-4-oxoquinazolin-3(4H)-yl)ethyl)benzenesulfonamide]
6.56	0.92	89.1 nM and 88.6 nM	280 to 281	82.1	85.58	12.07	6.8	582	CN(C)c1ccc(C=NNC(=O)CSc2nc3ccccc3c(=O)n2CCc2ccc(S(N)(=O)=O)cc2)cc1 [Compound 15, 4-(2-(2-((2-(2-(4-(Dimethylamino)benzylidene)hydrazineyl)-2-oxoethyl)thio)-4-oxoquinazolin-3(4H)-yl)ethyl)benzenesulfonamide]
6.55	1.38	28.5 nM	299 to 300	39.5	7.35	1.55	25.4	187	CC(=NNC(=O)CSc1nc2ccccc2c(=O)n1CCc1ccc(S(N)(=O)=O)cc1)c1ccc(F)cc1 [Compound 24, 4-(2-(2-((2-(2-(1-(4-Fluorophenyl)ethylidene)hydrazineyl)-2-oxoethyl)thio)-4-oxoquinazolin-3(4H)-yl)ethyl)benzenesulfonamide]
6.37	1.42	88.6 nM and 89.1 nM	288 to 289	127	8.37	1.87	67.8	568	NS(=O)(=O)c1ccc(CCn2c(SCC(=O)NN=Cc3ccc(Cl)cc3)nc3ccccc3c2=O)cc1 [Compound 6, 4-(2-(2-((2-(2-(4-Chlorobenzylidene)hydrazineyl)-2-oxoethyl)thio)-4-oxoquinazolin-3(4H)-yl)ethyl)benzenesulfonamide]
16.95	9.73	58.5 nM	288 to 289	569	46.34	26.60	21.4	992	NS(=O)(=O)c1ccc(CCn2c(SCC(=O)NN=Cc3ccccc3[N+](=O)[O-])nc3ccccc3c2=O)cc1 [Compound 13, 4-(2-(2-((2-(2-(2-Nitrobenzylidene)hydrazineyl)-2-oxoethyl)thio)-4-oxoquinazolin-3(4H)-yl)ethyl)benzenesulfonamide]
22.46	0.96	36.7 nM	264 to 265	35.2	45.04	1.92	18.3	824	CC(=NNC(=O)CSc1nc2ccccc2c(=O)n1CCc1ccc(S(N)(=O)=O)cc1)c1ccccc1N [Compound 18, 4-(2-(2-((2-(2-(1-(2-Aminophenyl)ethylidene)hydrazineyl)-2-oxoethyl)thio)-4-oxoquinazolin-3(4H)-yl)ethyl)benzenesulfonamide]
25.27	7.15	45.3 nM	273 to 275	324	19.74	5.59	58	1140	CC(=NNC(=O)CSc1nc2ccccc2c(=O)n1CCc1ccc(S(N)(=O)=O)cc1)c1ccccc1Cl [Compound 21, 4-(2-(2-((2-(2-(1-(2-Chlorophenyl)ethylidene)hydrazineyl)-2-oxoethyl)thio)-4-oxoquinazolin-3(4H)-yl)ethyl)benzenesulfonamide]
8.57	3.21	15.4 nM	292 to 293	49.5	8.35	3.13	15.8	132	NS(=O)(=O)c1ccc(CCn2c(SCC(=O)NN=Cc3ccc(F)cc3)nc3ccccc3c2=O)cc1 [Compound 11, 4-(2-(2-((2-(2-(4-Fluorobenzylidene)hydrazineyl)-2-oxoethyl)thio)-4-oxoquinazolin-3(4H)-yl)ethyl)benzenesulfonamide]
–	–	–	–	0.62	–	–	–	31.5	NS(=O)(=O)c1ccc(CCn2c(S)nc3ccccc3c2=O)cc1 [Compound 1, 4-(2-(2-mercapto-4-oxoquinazolin-3(4H)-yl)ethyl)benzenesulfonamide]
–	–	–	210 to 211	16.9 to 21.3	–	0.61	–	–	CCOC(=O)CSc1nc2ccccc2c(=O)n1CCc1ccc(S(N)(=O)=O)cc1 [Compound 2, Ethyl 2-((4-oxo-3-(4-sulfamoylphenethyl)-3,4-dihydroquinazolin-2-yl)thio)acetate]
7.07	0.32	33.7 nM	–	10.8	6.87	0.31	34.7	238	CC(=NNC(=O)CSc1nc2ccccc2c(=O)n1CCc1ccc(S(N)(=O)=O)cc1)c1cccnc1 [Compound 27, 4-(2-(4-Oxo-2-((2-oxo-2-(2-(1-(pyridin-3-yl)ethylidene)hydrazineyl)ethyl)thio)quinazolin-3(4H)-yl)ethyl)benzenesulfonamide]
